Laboratory results as given in patent US6946277B2, “Method for enhancing cellobiase activity of termitomyces clypeatus using a glycosylation inhibitor” (Council of Scientific and Industrial Research, priority 2001, dated 2005).

Experiments:
Termitomyces clypeatus [1] = assay: Cellobiase activity of culture filtrate of Termitomyces clypeatus grown with glycosylation inhibitors (p-nitro phenyl β-D-glucoside substrate); type: cell-based; settings: for Maximum cellobiase activity: Termitomyces clypeatus in presence of 2-deoxyglucose
Description: (§1) The fungus is maintained in agar slants containing (w/w) glucose 5%, potato extract 10%, malt extract 5%, KH2PO4 0.087%, MgSO4, 7H2O 0.05%. Cultivation of the fungus is carried out between temperatures 20-37° C., preferably at 28-30° C. and at pH between 3-8, preferably at 4-6, under aerobic condition in shake flask in liquid medium on a rotary shaker (200-300 strokes per minute). Among the assimilable carbon sources (cellobiose, mannose, fructose, xylose, arabinose, starch, dextrin, cellulose, cotton, xylan and agrowastes like baggasse powder, rice-straw powder, wheat bran, corn cob powder, corn powder; in presence of TCA cycle acids like succinate, fumarate, maleate or amino acids like aspartate, glutamate, serine, histidine and alanine or glucose analogues like D-glucosamine) D-cellobiose with succinate served as one of the best carbon sources in the concentration range of 0.5-2%(w/v). Among the assimilable nitrogen sources (ammonium chloride, ammonium nitrate, ammonium di hydrogen phosphate, potassium nitrate and organic nitrogen sources such as malt extract, yeast extract, potato extract, soya-peptone and bactopeptone) ammonium di hydrogen phosphate was used. Among the glycosylation inhibitors (Tunicamycin, deoxynojirimycin, 2-deoxy-D-glucose and D-glucono-lactone) 2-deoxy glucose was preferred (Table 1). Detergents used were Tween 20, Tween-80, or Tween-100. Initial pH of the medium may be maintained at 3-7, preferably at 4.5. Inoculum is prepared in the medium in polypropylene conical flask with sterile glass balls (1-1.5 cm in diameter) 3-4 numbers in 250-ml flask. The fine mycelia grown in liquid medium after 2-4 days of growth were added to the fermentation medium at the ratio of 1:10 (v/v). Optimum production of enzyme took place after 3 days of inoculation, between 4-6th days. The culture filtrate is freed from mycelia by any known method of filtration. Cellobiase activity of the culture medium was assayed using p-nitro phenyl β-D-glucoside as substrate. Reference may be made to Khowala. S. And Sengupta. S. (1992) Enzyme and microbial Technology, volume 14, pages144-149. One unit of activity was taken as the amount of enzyme, which could liberate one micromole of p-nitro phenol from p-nitro phenyl β-D-glucoside in the reaction mixture incubated at 50° C. for 30 minutes (Table 1 and 2). Endo-glucanase and cellobiohydrolase activities were measured by dinitrosalicylic acid reagent using carboxy methylcellulose (Sigma chemical co.) and crystalline cellulose (Sigma chemical co.) respectively as substrate (Table 2). Reference may be made to Sumner J. B. and Sumner G. (1949) in Laboratory Experiments in Chemistry, Academic press, New York, page 38. One unit of enzyme was considered as the amount of enzyme that could liberate one micromole of glucose equivalent per minute in buffer at pH 5.0 at 50° C.
[…] The 250 ml conical flask containing 50 ml of medium were autoclaved for 20 minutes at 15 pounds per square inch pressure, where separately autoclaved ammonium di hydrogen orthophosphate at the concentration of 2.4% w/w was added to the medium after sterilization. The medium was cooled and was inoculated at the rate of 10% mycelia (blended) of the fungus developed earlier in flasks with glass marbles. The culture was grown in the medium for 4 days at temperatures 28°-32° C. on a rotary-shaker. The culture filtrate was freed from mycelia and the clear supernatant was used as a source of enzymes. Cellobiase activity was 90 units per ml, endo-glucanase was 4.5 units per ml, and cellobiohydrolase was 3.5 units per ml, respectively. Cellobiase activity in absence of 2-deoxy-D-glucose in the control medium was 1.44 units per ml.
The fungus Termitomyces clypeatus IICB-411 was grown in a medium containing (w/w, %): Cellobiose 1, 2-deoxy-D-glucose 0.5, mannose 0.5, sodium succinate 0.5, KH2PO4 0.087, MgSO4, 7H2O 0.05 at pH 4.5. […]

Termitomyces clypeatus [2] = assay: Endo-glucanase activity of culture filtrate (carboxy methylcellulose, dinitrosalicylic acid reagent); type: cell-based; settings: for endo-glucanase: 4 days, pH 4.5
Description: as §1
(§2) The fungus Termitomyces clypeatus IICB-411 was grown in a medium containing (w/w, %): Cellobiose 1, 2-deoxy-D-glucose 0.30, sodium succinate 0.5, KH2PO4 0.087, MgSO4, 7H2O 0.05 at pH 4.5. The 250 ml conical flask containing 50 ml of medium were autoclaved for 20 minutes at 15 pounds per square inch pressure, where separately autoclaved ammonium di hydrogen orthophosphate at the concentration of 2.4% w/w was added to the medium after sterilization. The medium was cooled and was inoculated at the rate of 10% mycelia (blended) of the fungus developed earlier in flasks with glass marbles. The culture was grown in the medium for 4 days at temperatures 28°-32° C. on a rotary-shaker. The culture filtrate was freed from mycelia and the clear supernatant was used as a source of enzymes. Cellobiase activity was 90 units per ml, endo-glucanase was 4.5 units per ml, and cellobiohydrolase was 3.5 units per ml, respectively. Cellobiase activity in absence of 2-deoxy-D-glucose in the control medium was 1.44 units per ml. […]

Termitomyces clypeatus [3] = assay: Cellobiohydrolase activity of culture filtrate (crystalline cellulose, dinitrosalicylic acid reagent); type: cell-based; settings: for cellobiohydrolase: 4 days, pH 4.5
Description: as §1, §2

Dichomitus squalenes = assay: Cellobiase activity of Dichomitus squalenes in a similar medium; type: cell-based; settings: Dichomitus squalenes in presence of 2-deoxyglucose
T. clypeatus = assay: Growth of the fungus T. clypeatus in presence of 2-deoxy-D-glucose; type: cell-based, Termitomyces clypeatus; settings: at higher concentrations (above 0.05 to 5% w/v)
Source text: The inventive step is the addition of 2-deoxy-D-glucose in the growth medium in presence of assimilable carbon and nitrogen sources and other nutrients. 2-deoxy-D-glucose is non-fermentable analogue of glucose and mannose, and is known to interfere in formation of wall polysaccharides in yeast [Reference may be made to European Journal of Biochemistry (1975), Volume 54, pages 459-467] and to increase protein secretion in Trichoderma reesei [Reference may be made to Journal of General Microbiology (1989) Volume 135, pages 301-307]; but it acts as a glycosylation inhibitor, increases synthesis and secretion of extracellular proteins in Termitomyces clypeatus, when used in the concentration range of 0.05 to 5%(w/v) and high cellobiase activity is produced in presence of cellobiose, as determined in the applicants laboratory.

Trichoderma reesei = settings: cited from earlier work
[4] = Control medium + 2-deoxy-D-glucose 300 μg/ml (Example 2), Table 2
[5] = Control medium + 2-deoxy-D-glucose 1 mg/ml + Mannose 500 μg/ml
[6] = Control medium + 2-deoxyglucose 1 mg/ml (Example 1), Table 2
[7] = Example 1: 2-deoxy-D-glucose 0.30 % w/w
[8] = Example 2: 2-deoxy-D-glucose 0.5 % + mannose 0.5 % w/w
[9] = Example 3: 2-deoxy-D-glucose 1 % w/w

**Q.** For OC[C@H]1NC[C@H](O)[C@@H](O)[C@@H]1O [1-deoxynojirimycin], which Cellobiase activity (Termitomyces clypeatus [1]; Control + 1-deoxynojirimycin 80 μM) is on record?
**A.** 1.4085 units/ml

**Q.** With O=CC[C@@H](O)[C@H](O)[C@H](O)CO [2-deoxy-D-glucose] as the compound, how does the Cellobiase activity (Termitomyces clypeatus [1]; Control + 2-deoxy-D-glucose 0.05 mg/ml) read?
**A.** 2.236 units/ml

**Q.** And the Cellobiase activity (Termitomyces clypeatus [1]; Control + 2-deoxy-D-glucose 1 mg/ml)?
**A.** 50.097 units/ml

**Q.** What about the Cellobiase activity (Termitomyces clypeatus [1]; Control + 2-deoxy-D-glucose 5 mg/ml) of the same compound?
**A.** 0.081 units/ml

**Q.** What about the Cellobiase activity (Termitomyces clypeatus [1]; [4]) of the same compound?
**A.** 90.020 units/ml

**Q.** What about the Cellobiase activity (Termitomyces clypeatus [1]; [5]) of the same compound?
**A.** 140.60 units/ml

**Q.** What about the Cellobiase activity (Termitomyces clypeatus [1]; [6]) of the same compound?
**A.** 50.097 units/ml

**Q.** And the Cellobiase activity (Termitomyces clypeatus [1]; Example 1: 2-deoxy-D-glucose 0.30 % w/w, 4 days, pH 4.5)?
**A.** 90 units per ml

**Q.** What about the Cellobiase activity (Termitomyces clypeatus [1]; Example 2: 2-deoxy-D-glucose 0.5 % + mannose 0.5 % w/w, 4 days, pH 4.5) of the same compound?
**A.** 140 units per ml

**Q.** And the Cellobiase activity (Termitomyces clypeatus [1]; Example 3: 2-deoxy-D-glucose 1 % w/w, 4 days, pH 4.5)?
**A.** 50 units per ml

**Q.** And the Maximum cellobiase activity (Termitomyces clypeatus [1]; Example-1)?
**A.** 90.0 U/ml

**Q.** And the Maximum cellobiase activity (Termitomyces clypeatus [1]; Example-2)?
**A.** 140.0 U/ml

**Q.** And the Maximum cellobiase activity (Termitomyces clypeatus [1]; Example-3)?
**A.** 50.0 U/ml

**Q.** What about the “enhanced production and secretion of enzyme” value (Termitomyces clypeatus [1]; at lower concentrations) of the same compound?
**A.** the effect is not observed

**Q.** What about the Endo-glucanase activity (Termitomyces clypeatus [2]; [4]) of the same compound?
**A.** 4.637 units/ml

**Q.** What about the Endo-glucanase activity (Termitomyces clypeatus [2]; [5]) of the same compound?
**A.** 1.086 units/ml

**Q.** And the Endo-glucanase activity (Termitomyces clypeatus [2]; [6])?
**A.** 4.112 units/ml

**Q.** What about the endo-glucanase (Termitomyces clypeatus [2]; [7]) of the same compound?
**A.** 4.5 units per ml

**Q.** What about the endo-glucanase (Termitomyces clypeatus [2]; [8]) of the same compound?
**A.** 6 units per ml

**Q.** What about the endo-glucanase (Termitomyces clypeatus [2]; [9]) of the same compound?
**A.** 4 units per ml

**Q.** What about the Cellobiohydrolase activity (Termitomyces clypeatus [3]; [4]) of the same compound?
**A.** 3.600 units/ml

**Q.** And the Cellobiohydrolase activity (Termitomyces clypeatus [3]; [5])?
**A.** 4.873 units/ml

**Q.** What about the Cellobiohydrolase activity (Termitomyces clypeatus [3]; [6]) of the same compound?
**A.** 3.546 units/ml

**Q.** What about the cellobiohydrolase (Termitomyces clypeatus [3]; [7]) of the same compound?
**A.** 3.5 units per ml

**Q.** And the cellobiohydrolase (Termitomyces clypeatus [3]; [8])?
**A.** 3.5 units per ml

**Q.** What about the cellobiohydrolase (Termitomyces clypeatus [3]; [9]) of the same compound?
**A.** 3.5 units per ml

**Q.** And the Maximum cellobiase activity (Dichomitus squalenes)?
**A.** 0.05^C U/ml

**Q.** What about the “growth of the fungus” value (T. clypeatus) of the same compound?
**A.** inhibit growth

**Q.** And the “biosynthesis of extracellular as well as intracellular protein” value (Trichoderma reesei; 2-deoxy-D-glucose 0-150 μg/ml)?
**A.** inhibited

**Q.** For O=C1O[C@H](CO)[C@@H](O)[C@H](O)[C@H]1O [glucono-lactone, D-glucono-lactone], which Cellobiase activity (Termitomyces clypeatus [1]; Control + glucono-lactone 2 mg/ml) is on record?
**A.** 6.1820 units/ml

**Q.** Which results are given for Tunicamycin?
**A.** Cellobiase activity (Termitomyces clypeatus [1]; Control + Tunicamycin 10 μg/ml): 1.2075 units/ml; effect on secretion of proteins (Trichoderma reesei; Tunicamycin 0-50 μg/ml): no effect
